Experimental data as given in paper PMC4991483 (Oncotarget, 2016).
“Also recorded” adds a separate entry of the source.

Legend:
purified STAT5 = target: T1, purified STAT5 (Homo sapiens, UniProt P42229); assay: Gel-based STAT protein isoform labeling, STAT5; format: biochemical; conditions: 100 μM, 16 h, 4°C
T1 construct: His; purchased SignalChem S56-54H
T1 sequence (P42229 1-794): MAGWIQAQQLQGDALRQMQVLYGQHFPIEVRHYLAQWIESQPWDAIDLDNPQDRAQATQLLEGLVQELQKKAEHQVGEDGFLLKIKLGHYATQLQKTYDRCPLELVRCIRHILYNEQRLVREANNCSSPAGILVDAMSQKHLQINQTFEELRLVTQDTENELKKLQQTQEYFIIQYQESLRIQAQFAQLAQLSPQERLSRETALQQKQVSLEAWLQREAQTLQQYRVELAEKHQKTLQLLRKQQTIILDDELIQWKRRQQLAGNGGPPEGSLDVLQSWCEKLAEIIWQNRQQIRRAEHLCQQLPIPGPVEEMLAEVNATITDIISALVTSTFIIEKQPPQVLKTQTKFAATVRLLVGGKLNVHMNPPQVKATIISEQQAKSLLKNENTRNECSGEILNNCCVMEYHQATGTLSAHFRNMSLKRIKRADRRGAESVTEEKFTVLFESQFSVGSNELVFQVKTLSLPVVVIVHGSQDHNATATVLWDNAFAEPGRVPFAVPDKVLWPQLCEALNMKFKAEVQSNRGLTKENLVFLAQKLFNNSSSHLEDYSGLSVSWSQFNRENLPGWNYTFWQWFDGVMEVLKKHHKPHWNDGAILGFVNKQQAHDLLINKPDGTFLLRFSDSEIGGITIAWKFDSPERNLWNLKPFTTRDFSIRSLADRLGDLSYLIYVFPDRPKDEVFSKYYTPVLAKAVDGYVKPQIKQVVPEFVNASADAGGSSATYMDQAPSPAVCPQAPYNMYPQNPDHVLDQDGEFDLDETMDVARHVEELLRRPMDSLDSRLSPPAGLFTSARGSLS
Method: (§1) 1.0 μg of purified STAT3, STAT5, and STAT1 (SignalChem) were incubated with 100 uM of 4a for 16 h at 4°C. Samples were subjected to 4-20% SDS-PAGE and imaged using the Chemi-Doc MP (BIO-RAD).

MDA-MB-231 cells = assay: Live cell dosing of MDA-MB-231 cells, fluorescent protein labeling (SDS-PAGE); format: cell-based; conditions: 0, 50, 100, 200 μM, 6 h, 37°C
Method: (§2) To investigate the reactivity of 4a in cell lysates, 5 × 10^6 MDA-MB-231 cells were lysed with 200 μL RIPA buffer (Sigma-Aldrich). Lysates were treated with 0-500 μM of compound for 16 h at 4°C and subjected to 4-20% SDS-PAGE. To investigate the in cellulo activity 2 × 10^6 MDA-MB-231 cells were seeded in […] dishes. The following day cells were treated with 0-200 μM of 4a at 37°C, 5% CO2 for 6 h. Cells were lysed using 200 μL RIPA buffer (Sigma-Aldrich) and the lysates were subjected to 4-20% SDS-PAGE. Gels were visualized using the Chemi-Doc MP system. (BIO-RAD). Total protein levels were visualized using Coomassie Brilliant Blue stain. An identical protocol was performed for 4b for direct comparison with 4a.

purified STAT1 = target: T2, purified STAT1 (Homo sapiens, UniProt P42224); assay: Gel-based STAT protein isoform labeling, STAT1; format: biochemical; conditions: 100 μM, 16 h, 4°C
T2 construct: GST; purchased SignalChem S52-54G
T2 sequence (P42224 1-712 isoform P42224-2): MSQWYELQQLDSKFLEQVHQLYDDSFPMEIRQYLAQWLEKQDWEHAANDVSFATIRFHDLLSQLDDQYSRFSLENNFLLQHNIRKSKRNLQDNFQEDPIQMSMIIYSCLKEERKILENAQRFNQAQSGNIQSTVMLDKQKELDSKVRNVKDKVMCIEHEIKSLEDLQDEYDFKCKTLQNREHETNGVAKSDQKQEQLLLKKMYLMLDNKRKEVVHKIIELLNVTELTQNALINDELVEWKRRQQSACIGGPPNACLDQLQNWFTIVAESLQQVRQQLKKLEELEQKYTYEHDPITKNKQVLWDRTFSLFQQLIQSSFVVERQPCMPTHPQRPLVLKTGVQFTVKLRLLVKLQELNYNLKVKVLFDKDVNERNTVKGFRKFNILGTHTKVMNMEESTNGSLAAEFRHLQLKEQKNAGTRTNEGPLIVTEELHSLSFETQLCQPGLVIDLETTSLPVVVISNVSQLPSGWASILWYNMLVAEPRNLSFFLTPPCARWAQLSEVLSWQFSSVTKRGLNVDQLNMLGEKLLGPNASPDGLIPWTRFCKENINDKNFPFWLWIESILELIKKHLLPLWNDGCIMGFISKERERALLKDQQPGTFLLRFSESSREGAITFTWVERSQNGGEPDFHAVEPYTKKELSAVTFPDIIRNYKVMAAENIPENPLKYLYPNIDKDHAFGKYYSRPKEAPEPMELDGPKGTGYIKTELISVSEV
Method: as §1

purified STAT3 [1] = target: T3, purified STAT3 (Homo sapiens, UniProt P40763); assay: In vitro kinetic labeling of purified STAT3 protein by fluorescent probe (SDS-PAGE fluorescence); format: biochemical; conditions: 100 μM, 0-4 h, 4°C
Method: 1 μg of purified STAT3 (SignalChem) protein was incubated with 100 μM 4a at 4°C. At the indicated time points the reaction was quenched with Laemmli loading buffer containing 1.43 M β-mercaptoethanol. Quenched samples were then subjected to 4-20% SDS-PAGE and imaged using the Chemi-Doc MP system (BIO-RAD). Following gel quantification (Image Lab software, BIO-RAD) the data points were plotted and visualized by GraphPad PRISM software.

purified STAT3 [2] = target: T3, purified STAT3; assay: Gel-based STAT protein isoform labeling, STAT3; format: biochemical; conditions: 100 μM, 16 h, 4°C
Method: as §1

[3] = tested on: pSTAT3 in MDA-MB-231 cells; assay: Immunoblotting for activated pSTAT3 levels in MDA-MB-231 cells; format: cell-based; conditions: increasing concentrations
Method: as §2
Lysates were reduced, boiled, subjected to 4-20% SDS-PAGE and transferred to LF-PVDF membranes. Membranes were blocked with 3% BSA and incubated with pSTAT3 (Abcam ab76315), STAT3 (Cell Signaling 4904) or B-Actin (Cell signaling 3700) at 4°C overnight. Membranes were then probed with either anti-mouse IgG Alexa Flour 488 (Cell Signaling 4408) or anti-rabbit IgG Alexa Fluor 647 (Cell Signaling 4414) for 1 h at room temperature. Membranes were visualized using the Chemi-Doc MP System (BIO-RAD).

MDA-MB-231 cell lysates = assay: Fluorescent labeling of MDA-MB-231 whole cell lysates (SDS-PAGE); format: biochemical; conditions: for fluorescent labeling of protein content of cell lysates, O-tosyl vs sulfonamide probe: 100 μM
Method: as §2

[4] = HPLC-based glutathione (GSH) reactivity / chemical stability assay, 10 mM GSH with TCEP-HCl; conditions: 100 μM compound; for K (kobs), one phase decay / Tau, one phase decay: 10 mM TCEP-HCl, 50 mM HEPES pH 7.4; for reactivity with GSH: 10 h timescale
Method: (§3) From 10 mM compound stock solutions in DMSO 10 μL aliquots were transferred to an analytical HPLC vial containing 990 μL of reaction buffer (10.0 mM reduced GSH, 10.0 mM tris(2-carboxyethyl)phosphine hydrochloride (TCEP-HCl) and 50 mM HEPES buffered to pH 7.4) directly preceding 40.0 μL injections continued over a periodic time course. The process was automated by a Hewlett Packard Series 1100 analytical HPLC system fitted with an Agilent ZORBAX 3.5 μm Eclipse XDB-C18 column (23.0–24.0°C) under a linear elution gradient from H2O (double distilled and de-ionized to 18.2 MΩ cm) with 0.10 v/v % TFA to 100% HPLC grade CH3CN over 8.00 min followed by 2.00 min of sustained CH3CN under a 1.200 mL min^−1 flow rate. […] The data, measured in three replicates was fit to a one-phase exponential decay model (GraphPad PRISM) and kinetic parameters extracted from (1).
(1) A(t)=(A0−A∞)e^−kobs^t+A∞

glutathione (GSH) = assay: physchem; conditions: HEPES buffer with reduced glutathione (GSH) and TCEP-HCl, pH 7.4
Method: as §3
(1) A(t)=(A0−A∞)e^−kobs^t+A∞

STAT3 = conditions: cited from earlier work
activated STAT3 dimer = tested on: activated STAT3 dimer; design: method as in PMID 21618433; conditions: STAT3 EMSA assay; read-out: inhibition of activated STAT3 dimerization; cited from earlier work
[5] = target: recombinant, full-length STAT3 (Homo sapiens, UniProt P40763); assay: Incubation of recombinant full-length STAT3 with S3I-201, tryptic digestion and LC-MS/MS; conditions: 500 μM S3I-201 (80-fold molar excess), 1 h, 37°C
Method: The incubation was then quenched by the addition of dithiothreitol (DTT) to a final concentration of 0.5 mM and incubation at 55°C for 30 min. Free sulfhydryl groups were alkylated with 2-iodoacetamide (Sigma) at a final concentration of 1.5 mM for 45 min at room temperature. The samples were subjected to trypsin (Promega) digestion (0.5 μg of trypsin per reaction), lyophilized, re-suspended in 0.1% formic acid, and desalted using ZipTip C18 (EMD Millipore) prior to analysis. Samples were analyzed by LC-MS/MS on a nanoLC ultra HPLC system (Eksigent) coupled to a Thermo Scientific Orbitrap-Elite.
The aqueous and organic mobile phases consisted of 0.1% formic acid in water or CH3CN respectively. Organic mobile phase composition was varied over each hour long LC-MS/MS analysis as follows: 2% from 0 to 1 min, 10% to 35% from 1 to 35 min, 80% from 35.5 to 44.5 min, 2% from 45 to 60 min.
STAT3:DNA binding = conditions: approximate, reported value; read-out: approximate IC50 for the disruption of STAT3:DNA binding; cited from earlier work

Chain of recombinant, full-length STAT3 (P40763 whole entry): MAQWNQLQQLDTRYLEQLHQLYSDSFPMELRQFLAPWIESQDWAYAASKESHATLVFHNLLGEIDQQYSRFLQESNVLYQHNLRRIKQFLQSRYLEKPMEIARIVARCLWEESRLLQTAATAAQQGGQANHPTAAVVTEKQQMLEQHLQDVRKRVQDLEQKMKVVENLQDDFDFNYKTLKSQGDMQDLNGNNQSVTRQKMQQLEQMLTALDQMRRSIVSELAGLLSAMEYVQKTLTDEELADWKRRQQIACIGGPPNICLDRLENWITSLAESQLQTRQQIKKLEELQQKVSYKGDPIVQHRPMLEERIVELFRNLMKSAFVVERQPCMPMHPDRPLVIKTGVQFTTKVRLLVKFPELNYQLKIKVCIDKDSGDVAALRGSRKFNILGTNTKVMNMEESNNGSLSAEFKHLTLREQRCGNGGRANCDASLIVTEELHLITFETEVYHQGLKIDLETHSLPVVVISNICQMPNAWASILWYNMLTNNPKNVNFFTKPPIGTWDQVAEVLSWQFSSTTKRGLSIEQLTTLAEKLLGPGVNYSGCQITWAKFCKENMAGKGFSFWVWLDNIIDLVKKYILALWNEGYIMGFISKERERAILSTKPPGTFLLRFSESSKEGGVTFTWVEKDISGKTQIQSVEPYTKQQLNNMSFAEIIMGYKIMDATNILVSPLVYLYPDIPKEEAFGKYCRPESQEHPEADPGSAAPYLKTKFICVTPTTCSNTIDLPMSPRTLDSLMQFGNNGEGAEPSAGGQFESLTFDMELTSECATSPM
T3 sequence (P40763 whole entry): as above

Compound: Cc1ccc(S(=O)(=O)OCC(=O)N(Cc2cn(CCOCCOCCOCCNS(=O)(=O)c3cccc4c(N(C)C)cccc34)nn2)c2ccc(C(=O)O)c(O)c2)cc1 [4a]
- fluorescent labeling of purified STAT5 (purified STAT5): non-specific fluorescent labeling of all three STAT isoforms
- fluorescent labeling of intracellular proteins in whole cells (MDA-MB-231 cells): increasing levels of fluorescent intensities following the dose of reporter
- fluorescent labeling of intracellular proteins in whole cells (MDA-MB-231 cells; listed as DB-6-055): non-specifically and globally alkylated intracellular proteins
- fluorescent labeling of purified STAT1 (purified STAT1): non-specific fluorescent labeling of all three STAT isoforms
- fluorescent labeling of purified STAT3 over time course (purified STAT3 [1]): time dependent increase in fluorescent signal
- fluorescent labeling of purified STAT3 (purified STAT3 [2]): non-specific fluorescent labeling of all three STAT isoforms
- pSTAT3 levels (immunoblot) [3]: dose-dependent decrease in pSTAT3 levels
- fluorescent labeling of protein content of cell lysates (MDA-MB-231 cell lysates; 0, 100, 250, 500 μM, 16 h, 4°C): pronounced, non-specific, global labeling of the protein content
- fluorescent labeling of protein content of cell lysates, O-tosyl vs sulfonamide probe (MDA-MB-231 cell lysates): promiscuously modified

Compound: Cc1ccc(S(=O)(=O)NCC(=O)N(Cc2cn(CCOCCOCCOCCNS(=O)(=O)c3cccc4c(N(C)C)cccc34)nn2)c2ccc(C(=O)O)c(O)c2)cc1 [4b]
- fluorescent labeling of protein content of cell lysates, O-tosyl vs sulfonamide probe (MDA-MB-231 cell lysates): no observable fluorescent enhancement

Compound: CN(CC(=O)N(Cc1ccc(C2CCCCC2)cc1)c1ccc(C(=O)O)c(O)c1)S(=O)(=O)c1c(F)c(F)c(F)c(F)c1F [BP-1-102]
- K (kobs), one phase decay [4]: 0.5322 h⁻¹
- Tau, one phase decay [4]: 1.879

Compound: Cc1ccccc1CN(CC(=O)N(Cc1ccc(C2CCCCC2)cc1)c1ccc(C(=O)O)c(O)c1)S(=O)(=O)c1ccc(C(F)(F)F)cc1 [BP-5-087]
- K (kobs), one phase decay [4]: 0.1348 h⁻¹
- Tau, one phase decay [4]: 7.417
- reactivity with GSH [4]: negligible reactivity with GSH
- half-life at 100 μM (glutathione (GSH)): 5.14 h

Compound: Cc1ccc(S(=O)(=O)NCC(=O)Nc2ccc(C(=O)O)c(O)c2)cc1 [DB-5-112]
- K (kobs), one phase decay [4]: 2.725e-05 h⁻¹
- Tau, one phase decay [4]: 36701
- reactivity with GSH [4]: no reactivity toward GSH
- half-life at 100 μM (glutathione (GSH)): 25400 h

Compound: C[C@@H]1C=C2C(=O)O[C@@H]3CC[C@H](C1)[C@]23O [Galiellalactone]
- cysteine residues of STAT3 covalently modified (MS/MS analysis) (STAT3): covalently modified three cysteine residues (367, 468, and 542)

Compound: Cc1ccc(S(=O)(=O)OCC(=O)Nc2ccc(C(=O)O)c(O)c2)cc1 [S3I-201]
- K (kobs), one phase decay [4]: 2.735 h⁻¹
- Tau, one phase decay [4]: 0.3657
- IC50 (activated STAT3 dimer): 86 µM
- cysteine residues of STAT3 covalently modified (LC-MS/MS) [5]: covalently modified Cys108, Cys259, Cys367, Cys542, and Cys687; also recorded: five specific sites of modification, cysteine's 108, 259, 367, 542, and 687; also recorded: Cys residues (418, 426, and 712) were not alkylated
- IC50 (STAT3:DNA binding): ~100 µM

Compound: Cc1ccc(S(=O)(=O)N(C)CC(=O)N(Cc2ccc(C3CCCCC3)cc2)c2ccc(C(=O)O)c(O)c2)cc1 [SF-1-066]
- K (kobs), one phase decay [4]: ~ 16.95 h^−1
- Tau, one phase decay [4]: ~ 0.05898
- reactivity with GSH [4]: negligible reactivity with GSH
- half-life at 100 μM (glutathione (GSH)): ~0.0409 h

Compound: CN(CC(=O)N(Cc1ccc(C2CCCCC2)cc1)c1ccc(C(=O)O)cc1)S(=O)(=O)c1c(F)c(F)c(F)c(F)c1F [SH-4-054]
- K (kobs), one phase decay [4]: 0.5147 h⁻¹
- Tau, one phase decay [4]: 1.943

Compound: O=[N+]([O-])c1ccc2c(c1)S(=O)(=O)C=C2 [Stattic]
- cysteine residues of STAT3 modified (STAT3): Cys251, 259, 367, and 426
